Data as given in patent publication US9725430B2, “Use of small molecule inhibitors targeting EYA tyrosine phosphatase” (Children's Hospital Medical Center, priority 2013, dated 2017).

Key:
PTP1B = PTP1B (Homo sapiens (Human), UniProt P18031); test: PTP1B-catalyzed pNPP hydrolysis; format: biochemical; settings: for IC50: pNPP substrate
Description: The catalytic domain of human Eya2 (“hEYA2(ED)”) was similarly sub-cloned as a polyhistidine fusion construct in the vector pDEST-527. Fusion protein was purified by NiNTA chromatography and followed by size-exclusion chromatography over a Superdex-75 column. The relative purity of protein samples was determined using SDS-PAGE. PTP1B was purified as described previously (Rayapureddi, J. P. et al. Nature 426, 295-298 (2003), incorporated by reference in its entirety).
An inhibitory assay was conducted using the previously described p-nitrophenylphosphate assay (Rayapureddi, J. P. et al. Nature 426, 295-298 (2003)). Briefly, ED was incubated in a reaction mixture containing 20 mM MES pH 6, 2 mM MgCl2, 125 μM inhibitor, 3.4 mM para-nitrophenol phosphate (pNPP) and 0.01 μg/μL enzyme.
PTP1B is a classical Cys-based tyrosine phosphatase.

MCF10A(EYA2) cells = test: Transwell migration of MCF10A-EYA2 cells; format: cell-based; settings: 7.5 μM
Excerpt: The tyrosine phosphatase activity of Eya3 and Eya2 promotes single cell motility in breast cancer cells (Pandey, R. N. et al. Oncogene (2010) 29:3715-3722, incorporated by reference in its entirety). EYA2 is over-expressed in breast cancers and is associated with increased metastasis and a poorer outcome (Farabaugh, et al. Oncogene (2011) 259). […] Overexpression of EYA2, but not the tyrosine-phosphatase dead mutant, promoted cell motility (FIG. 2a). […] This effect was dose-dependent (FIG. 2d) and compound (1a) was able to reduce cell motility by over 50% at the lowest concentration (1 μM) tested.
(§1) In order to determine whether EYA3 knock down would affect cell migration, a modified Boyden chamber assay was used to measure HUVEC migration. Briefly, human umbilical vein endothelial cells (HUVECs) were purchased from Lonza (Walkersville, Md.) and maintained in the endothelial cell growth medium (PromoCell, Hleidelberg, Germany), under a 5% CO2 atmosphere. MCF10A cells from ATCC were stably transfected with either pcDNA 3.2N5-DEST (vector control), V5-EYA2 or V5-EYA2(D250N). Transwell migration experiments were performed as previously described (Pandey, R. N. et al. Oncogene 29, 3715-3722, (2010)).

EYA3 = EYA3 (Homo sapiens (Human), UniProt Q99504); test: pNPP assay, full-length human recombinant EYA3; format: biochemical
Sequence of EYA3 (Q99504 127-573): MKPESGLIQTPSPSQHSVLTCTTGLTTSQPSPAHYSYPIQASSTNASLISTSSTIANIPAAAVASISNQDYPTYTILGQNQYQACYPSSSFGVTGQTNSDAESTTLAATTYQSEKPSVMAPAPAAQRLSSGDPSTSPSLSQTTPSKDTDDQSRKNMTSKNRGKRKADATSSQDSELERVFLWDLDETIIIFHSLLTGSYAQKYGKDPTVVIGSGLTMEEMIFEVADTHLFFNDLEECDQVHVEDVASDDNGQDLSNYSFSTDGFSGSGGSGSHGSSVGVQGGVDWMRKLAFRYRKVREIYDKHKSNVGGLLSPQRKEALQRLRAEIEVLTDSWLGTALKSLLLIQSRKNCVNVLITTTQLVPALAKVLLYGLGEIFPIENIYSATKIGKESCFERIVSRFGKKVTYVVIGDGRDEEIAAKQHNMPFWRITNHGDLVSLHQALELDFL
Excerpt: The catalytic domain of mouse Eya3 (“ED”, comprising residues 223-510 of Eya3) was purified as described by Rayapureddi, J. P. et al. (FEBS Lett 580, 3853-3859 (2006), incorporated by reference in its entirety). For full-length Eya3 (“hEYA3”), human Eya3 isoform 2 (representing the major species identified in human cell lines by mass spectrometry, expressed as residues 127-573 of NM_001990, isoform 1) was sub-cloned into pDEST565 to express a poly-histidine-Glutathione-S-transferase (His-GST) tagged fusion protein with a TVMV protease site. The protein was purified by glutathione-S-transferase affinity chromatography followed by TVMV cleavage, Ni-NTA chromatography, and finally size exclusion chromatography. […]
The compounds were then tested using full-length human recombinant, purified EYA3 and pNPP as a substrate. Compounds were dissolved in DMSO and diluted as needed. […] Reactions were incubated at 30° C. for 30 minutes and quenched with 100 mM EDTA pH 10. IC50 values were then calculated directly from regression curves using PRISM software. All reported values are the mean of two independent experiments.

HUVECs [1] = test: HUVEC cell viability assay (WST-8); format: cell-based, human; settings: 3 days of exposure
Description: Additionally, a cell viability assay was conducted over 3 days of exposure to test compounds 1, 1a and 1g in order to assess both the possibility of immediate cellular toxicity as well as any effect on cell proliferation. HUVECs were seeded and equilibrated for 24 hours before addition of the test compounds. Cellular metabolic activity was measured at defined time-points using the tetrazolium dye WST-8 to quantify NAD(P)H-dependent cellular oxidoreductase enzyme activity.

HUVECs [2] = test: HUVEC tubulogenesis on Matrigel; format: cell-based, human; settings: for tube formation on Matrigel: HUVEC
Excerpt: Primary endothelial cells (ECs) on basement membrane rapidly attach, align themselves and form capillary-like tubules with lumens and tight cell-cell contacts. […] To better understand the stage in matrigel tube-formation affected by compound 1g cells plated on growth-factor reduced matrigel and treated with either vehicle or compound 1g were followed. Differences become apparent within the first two hours and were clearly visible at the 6-hour time-point. The ECs are much less organized in the presence of compound 1g. […] The effect of compound 1g on tube formation was attenuated in the presence of high concentrations of fetal bovine serum (FBS), likely reflecting non-specific protein binding.
The EYA inhibitors were also tested in tubulogenesis assays. The tubulogenesis assays were performed in 15-well micro-slide (ibidi LLC, Verona Wis.), using growth factor-reduced matrigel (BD Bioscience, Billerica, Mass.). The matrix was prepared by loading 10 μl of matrigel in each micro-slide well and allowing it to solidify for 30 minutes at 37° C. HUVECs were trypsinized and resuspended at 100.000 cell/ml in EBM+2.5% FBS. 50 μl (5,000 cell) were loaded on top of the solidified matrigel and the preparation was incubated for 20 hours at 37° C. in a humidified incubator in a 5% CO2 atmosphere. Bright field images were taken using an inverted microscope at 2.5× magnification, which allowed imaging of the whole well in two pictures that were later merged in Photoshop. Tubular structures were traced and counted using NeuroJ (NIH, USA). In experiments with inhibitor, the inhibitor was added to the cell suspension before loading. Each sample was loaded in triplicate, and each treatment was repeated for reproducibility.

HUVECs [3] = test: HUVEC proliferation (MTT); format: cell-based, human; settings: 5 μM, 24 hours
HUVECs [4] = test: HUVEC transwell migration; format: cell-based, human; settings: 5 μM
Excerpt: as §1

Sequence of PTP1B (P18031 whole entry, species assumed, the tested form may be a part): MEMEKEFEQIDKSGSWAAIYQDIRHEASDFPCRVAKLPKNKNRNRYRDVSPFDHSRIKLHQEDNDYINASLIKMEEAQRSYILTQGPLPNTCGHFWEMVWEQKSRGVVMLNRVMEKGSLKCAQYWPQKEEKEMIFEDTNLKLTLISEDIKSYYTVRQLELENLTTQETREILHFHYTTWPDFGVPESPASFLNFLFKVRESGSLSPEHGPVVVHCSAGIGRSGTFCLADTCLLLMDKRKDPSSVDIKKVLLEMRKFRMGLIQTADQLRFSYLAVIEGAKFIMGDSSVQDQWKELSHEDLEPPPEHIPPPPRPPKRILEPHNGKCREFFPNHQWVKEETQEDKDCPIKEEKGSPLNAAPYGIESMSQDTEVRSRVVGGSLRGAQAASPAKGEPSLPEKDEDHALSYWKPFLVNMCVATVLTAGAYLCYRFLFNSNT

SMILES	IC50 (PTP1B)	cell migration (MCF10A(EYA2) cells)	inhibitory effect in presence of detergent (EYA3; 0.01% Triton X-100)	mode of inhibition (substrate titration) (EYA3; increasing substrate concentration)	cell viability (HUVECs [1])	tubulogenesis inhibition (HUVECs [2]; 7.5 μM)	tube formation on Matrigel (HUVECs [2])	HUVEC cell proliferation (HUVECs [3])	HUVEC cell motility (HUVECs [4])	fold greater activity towards EYA3 than PTP1B (PTP1B; EYA3 vs PTP1B)	IC50 (EYA3; pNPP substrate, full-length EYA3)
CCc1oc2ccccc2c1C(=O)c1cc(Br)c(O)c(Br)c1 [Compound 1, Benzbromarone, reference compound]	53.8 µM	significantly inhibited cell migration	retained	not a competitive inhibitor	reduced cell viability	effective at the highest concentrations tested	inhibit EYA3 protein in cell migration and tubulogenesis	no effect on cell proliferation	attenuated HUVEC cell motility		
CCc1oc2ccccc2c1C(=O)c1ccc(O)cc1 [Compound 1a]	> 150 µM	significantly inhibited cell migration			reduced cell viability		inhibit EYA3 protein in cell migration and tubulogenesis	no effect on cell proliferation	attenuated HUVEC cell motility	over 100 fold	17 µM
